pIC50: −log10 of the molar value.
Each compound was assayed on IL-1β release upon NLRP3 activation in peripheral blood mononuclear cells (PBMC) (assay: PBMC IC50 Determination Assay). Settings: Homo sapiens; LPS-primed PBMC, 30 min compound, stimulated with ATP (5 mM) or nigericin (10 μM) for 1 h; IL-1β ELISA; read-out: PBMC IC50.
Assay type: cell-based
Experimental: PBMC IC50 Determination Assay
The compounds of the present disclosure were tested for their inhibitory activity against IL-1β release upon NLRP3 activation in peripheral blood mononuclear cells (PBMC).
Isolated cells were seeded into the wells of a 96-well plate and incubated for 3 h with lipopolysaccharide (LPS). Following medium exchange, the compounds of the present disclosure were added (a single compound per well) and the cells were incubated for 30 min. Next, the cells were stimulated either with ATP (5 mM) or nigericin (10 μM) for 1 h and the cell culture media from the wells were collected for further analysis.
The release of IL-1β into the media was determined by a quantitative detection of IL-1β in the media using an IL-1β enzyme-linked immunosorbent assay (ELISA) Ready-SET-Go!, eBioscience cat. […] Subsequently, plates were blocked with blocking buffer for 1 h at room temperature (rt) and after washing with a buffer (PBS with 0.05% Tween-20) incubated with protein standard and culture media. […] Plates were washed and incubated with HRP-streptavidin for 30 min at rt and washed again. The signal was developed after addition of 3,3,5,5-tetramethylbenzidine-peroxidase (TMB) until colour appeared and the reaction was stopped by 2 M H2SO4. A microplate spectrophotometer (BioTek) was used to detect signals with 450 nm. The detection range of IL-1β ELISA was 2-150 ng/ml.

SMILES	pIC50
CCOC(=O)C(Cn1cccn1)OC(=O)Nc1c(C)cccc1F (stereo not drawn) [Compound 49, Ethyl 2-{[(2-fluoro-6-methylphenyl)carbamoyl]oxy}-3-(1H-pyrazol-1-yl)propanoate]	6.00 to 7.00
CCOC(=O)C(Cn1cccn1)OC(=O)Nc1c(F)cccc1Cl (stereo not drawn) [Compound 50, Ethyl 2-{[(2-chloro-6-fluorophenyl)carbamoyl]oxy}-3-(1H-pyrazol-1-yl)propanoate]	6.00 to 7.00
CCOC(=O)C(Cn1cccn1)OC(=O)Nc1c(C)cccc1Cl (stereo not drawn) [Compound 51, Ethyl 2-{[(2-chloro-6-methylphenyl)carbamoyl]oxy}-3-(1H-pyrazol-1-yl)propanoate]	5.00 to 6.00
CCOC(=O)C(Cn1cccn1)OC(=O)Nc1c(Cl)cccc1Cl (stereo not drawn) [Compound 52, Ethyl 2-{[(2,6-dichlorophenyl)carbamoyl]oxy}-3-(1H-pyrazol-1-yl)propanoate]	5.00 to 6.00
CCOC(=O)C(Cn1cccn1)OC(=O)NC1CCCCC1 (stereo not drawn) [Compound 53, ethyl 2-[(cyclohexylcarbamoyl)oxy]-3-(1H-pyrazol-1-yl)-propanoate]	5.00 to 6.00
CCOC(=O)C(Cn1cccn1)OC(=O)NC1CCCC1 (stereo not drawn) [Compound 54, Ethyl 2-[(cyclopentylcarbamoyl)oxy]-3-(1H-pyrazol-1-yl)propanoate]	5.00 to 6.00
CCOC(=O)C(Cn1cccn1)OC(=O)NC1CCCCCC1 (stereo not drawn) [Compound 56, Ethyl 2-[(cycloheptylcarbamoyl)oxy]-3-(1H-pyrazol-1-yl)propanoate]	< 5.00
CCOC(=O)C(Cn1cccn1)OC(=O)Nc1c(C)cccc1C#N (stereo not drawn) [Compound 57, Ethyl 2-{[(2-cyano-6-methylphenyl)carbamoyl]oxy}-3-(1H-pyrazol-1-yl)propanoate]	< 5.00
CCOC(=O)C(Cn1cccn1)OC(=O)Nc1c(C#N)cccc1CC (stereo not drawn) [Compound 58, Ethyl 2-{[(2-cyano-6-ethylphenyl)carbamoyl]oxy}-3-(1H-pyrazol-1-yl)propanoate]	5.00 to 6.00
CCOC(=O)C(Cn1cccn1)OC(=O)Nc1c(Cl)cccc1C#N (stereo not drawn) [Compound 59, Ethyl 2-{[(2-chloro-6-cyanophenyl)carbamoyl]oxy}-3-(1H-pyrazol-1-yl)propanoate]	< 5.00
O=C(Nc1c2c(cc3c1CCC3)CCC2)O[C@H](Cn1cccn1)C(=O)O [Compound 61, (2R)-2-{[(1,2,3,5,6,7-hexahydro-s-indacen-4-yl)carbamoyl]oxy}-3-(1H-pyrazol-1-yl)propanoic acid]	6.00 to 7.00
CCOC(=O)C(Cc1cccnn1)OC(=O)Nc1c2c(cc3c1CCC3)CCC2 (stereo not drawn) [Compound 62, Ethyl 2-{[(1,2,3,5,6,7-hexahydro-s-indacen-4-yl)carbamoyl]oxy}-3-(pyridazin-3-yl)propanoate]	6.00 to 7.00
CCOC(=O)C(Cn1cccn1)OC(=O)Nc1c(F)ccc(F)c1F (stereo not drawn) [Compound 63, Ethyl 3-(1H-pyrazol-1-yl)-2-{[(2,3,6-trifluorophenyl)carbamoyl]oxy}propanoate]	6.00 to 7.00
O=C(Nc1c2c(cc3c1CCC3)CCC2)O[C@H](Cn1cccn1)C(=O)OCc1ccccc1 [Compound 64, Benzyl (2R)-2-{[(1,2,3,5,6,7-hexahydro-s-indacen-4-yl)carbamoyl]oxy}-3-(1H-pyrazol-1-yl)propanoate]	6.00 to 7.00
CCOC(=O)C(Cn1cccn1)OC(=O)Nc1c(F)cccc1CC (stereo not drawn) [Compound 66, Ethyl 2-{[(2-ethyl-6-fluorophenyl)carbamoyl]oxy}-3-(1H-pyrazol-1-yl)propanoate]	6.00 to 7.00
CCOC(=O)[C@@H](Cn1ccnc1)OC(=O)Nc1c2c(cc3c1CCC3)CCC2 [Compound 67, Ethyl (2R)-2-{[(1,2,3,5,6,7-hexahydro-s-indacen-4-yl)carbamoyl]oxy}-3-(1H-imidazol-1-yl)propanoate]	6.00 to 7.00
CCOC(=O)[C@@H](COC)OC(=O)Nc1c2c(cc3c1CCC3)CCC2 [Compound 68, Ethyl (2R)-2-{[(1,2,3,5,6,7-hexahydro-indacen-4-yl)carbamoyl]oxy}-3-methoxypropanoate]	5.00 to 6.00
COC[C@@H](OC(=O)Nc1c2c(cc3c1CCC3)CCC2)C(=O)O [Compound 69, (2R)-2-{[(1,2,3,5,6,7-hexahydro-s-indacen-4-yl)carbamoyl]oxy}-3-methoxypropanoic acid]	6.00 to 7.00
CCOC(=O)C(Cn1cccn1)OC(=O)Nc1cccc(C(F)(F)F)c1Cl (stereo not drawn) [Compound 70, Ethyl 2-({[2-chloro-3-(trifluoromethyl)phenyl]carbamoyl}oxy)-3-(1H-pyrazol-1-yl)propanoate]	5.00 to 6.00
CCOC(=O)C(Cn1ccc(C)n1)OC(=O)Nc1c2c(cc3c1CCC3)CCC2 (stereo not drawn) [Compound 72, Ethyl 2-{[(1,2,3,5,6,7-hexahydro-s-indacen-4-yl)carbamoyl]oxy}-3-(3-methyl-1H-pyrazol-1-yl)propanoate]	7.00 to 8.00
CCOC(=O)C(Cn1cccn1)OC(=O)Nc1c(F)cc(F)cc1F (stereo not drawn) [Compound 73, Ethyl 3-(1H-pyrazol-1-yl)-2-{[(2,4,6-trifluorophenyl)carbamoyl]oxy}propanoate]	6.00 to 7.00
CCOC(=O)C(Cn1cccn1)OC(=O)Nc1c(C)cccc1C(C)C (stereo not drawn) [Compound 74, Ethyl 2-({[2-methyl-6-(propan-2-yl)phenyl]carbamoyl}oxy)-3-(1H-pyrazol-1-yl)propanoate]	6.00 to 7.00
CCOC(=O)C(Cn1cccn1)OC(=O)Nc1c(F)ccc(Cl)c1F (stereo not drawn) [Compound 75, Ethyl 2-{[(3-chloro-2,6-difluorophenyl)carbamoyl]oxy}-3-(1H-pyrazol-1-yl)propanoate]	6.00 to 7.00
N#Cc1cnn(C[C@@H](OC(=O)Nc2c3c(cc4c2CCC4)CCC3)C(=O)OCc2ccccc2)c1 [Compound 77, Benzyl (2R)-3-(4-cyano-1H-pyrazol-1-yl)-2-{[(1,2,3,5,6,7-hexahydro-s-indacen-4-yl)carbamoyl]oxy}propanoate]	7.00 to 8.00
O=C(Nc1c2c(cc3c1CCC3)CCC2)O[C@H](Cn1ccnc1)C(=O)O [Compound 79, (2R)-2-{[(1,2,3,5,6,7-hexahydro-s-indacen-4-yl)carbamoyl]oxy}-3-(1H-imidazol-1-yl)propanoic acid]	5.00 to 6.00
CCOC(=O)C(Cn1cc(F)cn1)OC(=O)Nc1c2c(cc3c1CCC3)CCC2 (stereo not drawn) [Compound 80, Ethyl 3-(4-fluoro-1H-pyrazol-1-yl)-2-{[(1,2,3,5,6,7-hexahydro-s-indacen-4-yl)carbamoyl]oxy}propanoate]	7.00 to 8.00
CCOC(=O)C(Cn1cncc1C)OC(=O)Nc1c2c(cc3c1CCC3)CCC2 (stereo not drawn) [Compound 81, Ethyl 2-{[(1,2,3,5,6,7-hexahydro-s-indacen-4-yl)carbamoyl]oxy}-3-(5-methyl-1H-imidazol-1-yl)propanoate]	5.00 to 6.00
N#Cc1cnn(C[C@@H](OC(=O)Nc2c3c(cc4c2CCC4)CCC3)C(=O)O)c1 [Compound 82, (2R)-3-(4-cyano-1H-pyrazol-1-yl)-2-{[(1,2,3,5,6,7-hexahydro-s-indacen-4-yl)carbamoyl]oxy}propanoic acid]	7.00 to 8.00
CCOC(=O)C(Cn1ccnc1C)OC(=O)Nc1c2c(cc3c1CCC3)CCC2 (stereo not drawn) [Compound 84, Ethyl 2-{[(1,2,3,5,6,7-hexahydro-s-indacen-4-yl)carbamoyl]oxy}-3-(2-methyl-1H-imidazol-1-yl)propanoate]	5.00 to 6.00
CCOC(=O)C(Cn1cccn1)OC(=O)Nc1c(Cl)cccc1CC (stereo not drawn) [Compound 85, Ethyl 2-{[(2-chloro-6-ethylphenyl)carbamoyl]oxy}-3-(1H-pyrazol-1-yl)propanoate]	7.00 to 8.00
